# According to US20020137929A1, “1 - (3-heterocyclylphenyl) isothiourea, -isourea, -guanidine and -amidine herbicidal agents” (Intellectual Property Department, BASF Aktiengesellschaft, priority 1998, published 2002):
# Assays:
# [1] = system: AMBEL (Ragweed, Common); assay: Postemergence herbicidal evaluation; format: in vivo, Ambrosia artemisifolia; settings: postemergence
# How it was run: (§1)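 ~2-wk seedlings; postemergence spray, 40 psi; vehicle 1:1 acetone:water + 0.5% Tween 20; rate ≈0.0156–0.500 kg/ha; greenhouse hold; scored 4–5 wk after treatment, 0–9 scale vs control; repeat tests averaged.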
# [2] = system: CASOB (Sicklepod); assay: Postemergence herbicidal evaluation; format: in vivo, Cassia obtusifolia; settings: postemergence
# How it was run: as §1
# [3] = system: CHEAL (Lambsquarters, Common); assay: Postemergence herbicidal evaluation; format: in vivo, Chenopodium album; settings: postemergence
# How it was run: as §1
# [4] = system: IPOHE (Morningglory, Ivyleaf); assay: Postemergence herbicidal evaluation; format: in vivo, Ipomoea hederacea; settings: postemergence
# How it was run: as §1
# [5] = system: ECHCG (Barnyardgrass); assay: Postemergence herbicidal evaluation; format: in vivo, Echinochloa crus-galli; settings: postemergence
# How it was run: as §1
# [6] = system: GLXMAW (Soybean, Williams); assay: Postemergence herbicidal evaluation; format: in vivo, Glycine max, (L.) Merr. cv Williams; settings: postemergence
# How it was run: as §1
# [7] = system: TRZAWR (Wheat, Winter, cv Riband); assay: Postemergence herbicidal evaluation; format: in vivo, Triticum aestivum; settings: postemergence
# How it was run: as §1
# [8] = system: ABUTH (Velvetleaf); assay: Preemergence herbicidal evaluation; format: in vivo, Abutilon theophrasti; settings: rated 4-5 weeks after treatment
# How it was run: (§2)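 Herbicidal effect scored visually, 0-9, at 4 to 5 weeks against a control; compound applied preemergence by aqueous acetone spray to seeded soil at about 0.0156 to 0.500 kg/ha.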
# [9] = system: AMBEL (Ragweed, Common); assay: Preemergence herbicidal evaluation; format: in vivo, Ambrosia artemisifolia; settings: rated 4-5 weeks after treatment
# How it was run: as §2
# [10] = system: CASOB (Sicklepod); assay: Preemergence herbicidal evaluation; format: in vivo, Cassia obtusifolia; settings: rated 4-5 weeks after treatment
# How it was run: as §2
# [11] = system: CHEAL (Lambsquarters, Common); assay: Preemergence herbicidal evaluation; format: in vivo, Chenopodium album; settings: rated 4-5 weeks after treatment
# How it was run: as §2
# [12] = system: IPOHE (Morningglory, Ivyleaf); assay: Preemergence herbicidal evaluation; format: in vivo, Ipomoea hederacea; settings: rated 4-5 weeks after treatment
# How it was run: as §2
# [13] = system: GLXMAW (Soybean, Williams); assay: Preemergence herbicidal evaluation; format: in vivo, Glycine max, (L.) Merr. cv Williams; settings: rated 4-5 weeks after treatment
# How it was run: as §2
# [14] = system: ORYSAT (Rice, Tebonnet); assay: Preemergence herbicidal evaluation; format: in vivo, Oryza sativa, (L.) Tebonnet; settings: rated 4-5 weeks after treatment
# How it was run: as §2
# [15] = system: SAGPY (Arrowhead (Pygmaea)); assay: Preemergence weed control under flooded paddy conditions; format: in vivo, Sagittaria pygmaea; settings: rated 3-4 weeks after treatment
# How it was run: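 Visual injury scored 0-9 against control three to four weeks post-treatment, greenhouse-grown. Application: acetone/water (50/50) solutions dosed directly into flood water (1.5-3 cm over silt loam, planted top 0.5 cm), roughly 0.0313 to 0.500 kg/ha active ingredient.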
structure (smiles),measurement,setting,value
"C[C@@H](C(=O)OC(C)(C)C)N1C(=O)CSC1=Nc1cc(-n2c(=O)cc(C(F)(F)F)n(C)c2=O)c(F)cc1Cl [Compound 75, tert-Butyl 2-{{2-chloro-5-[3,6-dihydro-3-methyl-2,6-dioxo-4-(trifluoromethyl)-1(2H)-pyrimidinyl]-4-fluorophenyl}imino}-α-methyl-4-oxo-3-thiazolidineacetate, L-]",AMBEL herbicidal rating,[1]; rate 0.0158 kg/ha,7.0
same,AMBEL herbicidal rating,[1]; rate 0.0315 kg/ha,5.0
same,AMBEL herbicidal rating,[1]; rate 0.0630 kg/ha,9.0
same,CASOB herbicidal rating,[2]; rate 0.0158 kg/ha,1.0
same,CASOB herbicidal rating,[2]; rate 0.0315 kg/ha,1.0
same,CASOB herbicidal rating,[2]; rate 0.0630 kg/ha,3.0
same,CHEAL herbicidal rating,[3]; rate 0.0158 kg/ha,7.0
same,CHEAL herbicidal rating,[3]; rate 0.0315 kg/ha,7.0
same,CHEAL herbicidal rating,[3]; rate 0.0630 kg/ha,7.0
same,IPOHE herbicidal rating,[4]; rate 0.0158 kg/ha,7.0
same,IPOHE herbicidal rating,[4]; rate 0.0315 kg/ha,7.0
same,IPOHE herbicidal rating,[4]; rate 0.0630 kg/ha,9.0
same,ECHCG herbicidal rating,[5]; rate 0.0158 kg/ha,1.0
same,ECHCG herbicidal rating,[5]; rate 0.0315 kg/ha,1.0
same,ECHCG herbicidal rating,[5]; rate 0.0630 kg/ha,1.0
same,GLXMAW herbicidal rating,[6]; rate 0.0158 kg/ha,4.0
same,GLXMAW herbicidal rating,[6]; rate 0.0315 kg/ha,4.5
same,GLXMAW herbicidal rating,[6]; rate 0.0630 kg/ha,5.0
same,TRZAWR herbicidal rating,[7]; rate 0.0158 kg/ha,2.5
same,TRZAWR herbicidal rating,[7]; rate 0.0315 kg/ha,2.5
same,TRZAWR herbicidal rating,[7]; rate 0.0630 kg/ha,2.5
same,Preemergence herbicidal rating ABUTH,[8]; rate 0.0156 kg/ha,0.0
same,Preemergence herbicidal rating ABUTH,[8]; rate 0.0313 kg/ha,0.0
same,Preemergence herbicidal rating ABUTH,[8]; rate 0.0625 kg/ha,9.0
same,Preemergence herbicidal rating ABUTH,[8]; rate 0.1250 kg/ha,9.0
same,Preemergence herbicidal rating ABUTH,[8]; rate 0.2500 kg/ha,9.0
same,Preemergence herbicidal rating AMBEL,[9]; rate 0.0156 kg/ha,0.0
same,Preemergence herbicidal rating AMBEL,[9]; rate 0.0313 kg/ha,0.0
same,Preemergence herbicidal rating AMBEL,[9]; rate 0.0625 kg/ha,1.0
same,Preemergence herbicidal rating AMBEL,[9]; rate 0.1250 kg/ha,6.0
same,Preemergence herbicidal rating AMBEL,[9]; rate 0.2500 kg/ha,7.0
same,Preemergence herbicidal rating CASOB,[10]; rate 0.0156 kg/ha,0.0
same,Preemergence herbicidal rating CASOB,[10]; rate 0.0313 kg/ha,0.0
same,Preemergence herbicidal rating CASOB,[10]; rate 0.0625 kg/ha,0.0
same,Preemergence herbicidal rating CASOB,[10]; rate 0.1250 kg/ha,1.0
same,Preemergence herbicidal rating CASOB,[10]; rate 0.2500 kg/ha,1.0
same,Preemergence herbicidal rating CHEAL,[11]; rate 0.0156 kg/ha,9.0
same,Preemergence herbicidal rating CHEAL,[11]; rate 0.0313 kg/ha,9.0
same,Preemergence herbicidal rating CHEAL,[11]; rate 0.0625 kg/ha,9.0
same,Preemergence herbicidal rating CHEAL,[11]; rate 0.1250 kg/ha,9.0
same,Preemergence herbicidal rating CHEAL,[11]; rate 0.2500 kg/ha,9.0
same,Preemergence herbicidal rating IPOHE,[12]; rate 0.0156 kg/ha,0.0
same,Preemergence herbicidal rating IPOHE,[12]; rate 0.0313 kg/ha,0.0
same,Preemergence herbicidal rating IPOHE,[12]; rate 0.0625 kg/ha,0.0
same,Preemergence herbicidal rating IPOHE,[12]; rate 0.1250 kg/ha,0.0
same,Preemergence herbicidal rating IPOHE,[12]; rate 0.2500 kg/ha,2.0
same,Preemergence herbicidal rating GLXMAW,[13]; rate 0.0156 kg/ha,0.0
same,Preemergence herbicidal rating GLXMAW,[13]; rate 0.0313 kg/ha,0.0
same,Preemergence herbicidal rating GLXMAW,[13]; rate 0.0625 kg/ha,0.0
same,Preemergence herbicidal rating GLXMAW,[13]; rate 0.1250 kg/ha,2.0
same,Preemergence herbicidal rating GLXMAW,[13]; rate 0.2500 kg/ha,2.0
same,Preemergence herbicidal rating ORYSAT,[14]; rate 0.0156 kg/ha,0.0
same,Preemergence herbicidal rating ORYSAT,[14]; rate 0.0313 kg/ha,0.0
same,Preemergence herbicidal rating ORYSAT,[14]; rate 0.0625 kg/ha,0.0
same,Preemergence herbicidal rating ORYSAT,[14]; rate 0.1250 kg/ha,1.0
same,Preemergence herbicidal rating ORYSAT,[14]; rate 0.2500 kg/ha,2.0
same,SAGPY herbicidal effect rating,[15]; 0.0313 kg/ha,0.0
same,SAGPY herbicidal effect rating,[15]; 0.0625 kg/ha,0.0
same,SAGPY herbicidal effect rating,[15]; 0.1250 kg/ha,0.0
same,SAGPY herbicidal effect rating,[15]; 0.2500 kg/ha,3.0
